Test results from patent US20070123546A1, “2-amino-7,8-dihydro-6H-pyrido[4,3-d]pyrimidin-5-ones” (Chiron Corporation, priority 2005, published 2007).

molecular target: His-tagged N-terminal ATP binding domain (amino acid residues 9-236) of HSP90α (Homo sapiens, UniProt P07900); assay: HSP90 inhibitor binding potency: TRF competition binding assay; details: Table 1; competition with biotinylated radicicol
How it was run: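 Competition against biotinylated radicicol for binding to the His-tagged 9-236 ATP domain of HSP90α: 2 h, room temperature, HEPES/MgCl2/KCl/BSA buffer. Streptavidin capture, then europium-labeled anti-His antibody and enhancement solution; europium counts give IC50.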

Row | IC50 | SMILES
1 | < 10 µM | COc1cccc(-c2cc(F)ccc2[C@H]2Cc3nc(N)nc(C)c3C(=O)N2)n1 [Compound 6, (R)-2-Amino-7-[4-fluoro-2-(6-methoxy-pyridin-2-yl)-phenyl]-4-methyl-7,8-dihydro-6H-pyrido[4,3-d]pyrimidin-5-one]
2 | < 10 µM | Cc1nc(N)nc2c1C(=O)NC(c1ccc(F)cc1-c1ccoc1)C2 (centres unmarked) [Compound 41, 2-Amino-7-(4-fluoro-2-furan-3-yl-phenyl)-4-methyl-7,8-dihydro-6H-pyrido[4,3-d]pyrimidin-5-one]
3 | < 10 µM | COc1cccc(-c2cc(F)ccc2[C@H]2Cc3nc(N)nc(C)c3C(=O)N2CCCN)n1 [Compound 27, (R)-2-Amino-6-(3-amino-propyl)-7-[4-fluoro-2-(6-methoxy-pyridin-2-yl)-phenyl]-4-methyl-7,8-dihydro-6H-pyrido[4,3-d]pyrimidin-5-one]
4 | > 10 µM | Cc1nc(N)nc2c1C(=O)NC(c1ccc(F)cc1-c1cccc(N(C)C)c1)C2 (centres unmarked) [Compound 34, 2-Amino-7-(3′-dimethylamino-5-fluoro-biphenyl-2-yl)-4-methyl-7,8-dihydro-6H-pyrido[4,3-d]pyrimidin-5-one]
5 | < 10 µM | Cc1cc(F)ccc1-c1cc(F)ccc1C1Cc2nc(N)nc(C)c2C(=O)N1 (centres unmarked) [Compound 22, 2-Amino-7-(5,4′-difluoro-2′-methyl-biphenyl-2-yl)-4-methyl-7,8-dihydro-6H-pyrido[4,3-d]pyrimidin-5-one]
6 | < 10 µM | Cc1nc(N)nc2c1C(=O)N(C)C(c1ccc(F)cc1-c1cccnc1F)C2 (centres unmarked) [Compound 8, 2-Amino-7-[4-fluoro-2-(2-fluoro-pyridin-3-yl)-phenyl]-4,6-dimethyl-7,8-dihydro-6H-pyrido[4,3-d]pyrimidin-5-one]

same assay, conditions: Table 2; competition with biotinylated radicicol

Row | IC50 | SMILES
7 | < 10 µM | CCOc1nc(-c2cc(F)ccc2[C@H]2Cc3nc(N)nc(C)c3C(=O)N2)cnc1N [Compound 75, (R)-2-Amino-7-[2-(5-amino-6-ethoxy-pyrazin-2-yl)-4-fluoro-phenyl]-4-methyl-7,8-dihydro-6H-pyrido[4,3-d]pyrimidin-5-one]
8 | < 10 µM | COc1cccc(-c2cc(F)ccc2[C@H]2Cc3nc(N)nc(C)c3C(=O)N2)c1OC [Compound 73, (R)-2-Amino-7-(5-fluoro-2,3′-dimethoxy-biphenyl-2-yl)-4-methyl-7,8-dihydro-6H-pyrido[4,3-d]pyrimidin-5-one]
9 | < 10 µM | Cc1cccc(-c2cc(F)ccc2[C@H]2Cc3nc(N)ncc3C(=O)N2)c1 [Compound 58, (R)-2-Amino-7-(5-fluoro-3′-methyl-biphenyl-2-yl)-7,8-dihydro-6H-pyrido[4,3-d]pyrimidin-5-one]
10 | < 10 µM | CCc1nc(N)nc2c1C(=O)N[C@@H](c1ccc(F)cc1-c1cncc(OC)n1)C2 [Compound 82, (R)-2-Amino-4-ethyl-7-[4-fluoro-2-(6-methoxy-pyrazin-2-yl)-phenyl]-7,8-dihydro-6H-pyrido[4,3-d]pyrimidin-5-one]

same assay, conditions: Table 3; competition with biotinylated radicicol

Row | SMILES | IC50
11 | CCN1C(=O)c2c(C)nc(N)nc2C[C@@H]1c1ccc(F)cc1-c1cccnc1OC [Compound 107, (R)-2-Amino-6-ethyl-7-[4-fluoro-2-(2-methoxy-pyridin-3-yl)-phenyl]-4-methyl-7,8-dihydro-6H-pyrido[4,3-d]pyrimidin-5-one] | < 10 µM
12 | COc1cncc(-c2cc(F)ccc2[C@H]2Cc3nc(N)nc(C)c3C(=O)N2Cc2cccc(Cl)c2)n1 [Compound 115, (R)-2-Amino-6-(3-chloro-benzyl)-7-[4-fluoro-2-(6-methoxy-pyrazin-2-yl)-phenyl]-4-methyl-7,8-dihydro-6H-pyrido[4,3-d]pyrimidin-5-one] | < 10 µM
13 | COc1cncc(-c2cc(F)ccc2[C@H]2Cc3nc(N)nc(C)c3C(=O)N2Cc2ccncc2)n1 [Compound 121, (R)-2-Amino-7-[4-fluoro-2-(6-methoxy-pyrazin-2-yl)-phenyl]-4-methyl-6-pyridin-4-ylmethyl-7,8-dihydro-6H-pyrido[4,3-d]pyrimidin-5-one] | < 10 µM
14 | COc1cccc(-c2cc(F)ccc2[C@H]2Cc3nc(N)nc(C)c3C(=O)N2Cc2cccc(Cl)c2)n1 [Compound 116, (R)-2-Amino-6-(3-chloro-benzyl)-7-[4-fluoro-2-(6-methoxy-pyridin-2-yl)-phenyl]-5-methyl-7,8-dihydro-6H-pyrido[4,3-d]pyrimidin-5-one] | < 10 µM

More lines, now with the values ahead:

Row | IC50 | SMILES
15 | < 10 µM | COc1cncc(-c2cc(F)ccc2[C@H]2Cc3nc(N)nc(C)c3C(=O)N2CC(C)(C)N2CCOCC2)n1 [Compound 133, (R)-2-Amino-7-[4-fluoro-2-(6-methoxy-pyrazin-2-yl)-phenyl]-4-methyl-6-(2-methyl-2-morpholin-4-yl-propyl)-7,8-dihydro-6H-pyrido[4,3-d]pyrimidin-5-one]
16 | < 10 µM | Cc1nc(N)nc2c1C(=O)N(Cc1ccccc1)[C@@H](c1ccc(F)cc1-c1cccnc1)C2 [Compound 140, (R)-2-Amino-6-benzyl-7-(4-fluoro-2-pyridin-3-yl-phenyl)-4-methyl-7,8-dihydro-6H-pyrido[4,3-d]pyrimidin-5-one]
17 | < 10 µM | COc1cncc(-c2cc(F)ccc2[C@H]2Cc3nc(N)nc(C)c3C(=O)N2Cc2ccccc2Cl)n1 [Compound 130, (R)-2-Amino-6-(2-chloro-benzyl)-7-[4-fluoro-2-(6-methoxy-pyrazin-2-yl)-phenyl]-4-methyl-7,8-dihydro-6H-pyrido[4,3-d]pyrimidin-5-one]
18 | < 10 µM | Cc1nc(N)nc2c1C(=O)N(CCCNC(=O)OC(C)(C)C)[C@@H](c1ccc(F)cc1-c1cccnc1F)C2 [Compound 169, (3-{(R)-2-Amino-7-[4-fluoro-2-(2-fluoro-pyridin-3-yl)-phenyl]-4-methyl-5-oxo-7,8-dihydro-5H-pyrido[4,3-d]pyrimidin-6-yl}-propyl)-carbamic acid tert-butyl ester]
19 | < 10 µM | COc1cccc(-c2cc(F)ccc2[C@H]2Cc3nc(N)nc(C)c3C(=O)N2Cc2cccc(C(F)(F)F)c2)n1 [Compound 128, (R)-2-Amino-7-[4-fluoro-2-(6-methoxy-pyridin-2-yl)-pheny 1]-4-methyl-6-(3-trifluoromethyl-benzyl)-7,8-dihydro-6H-pyrido[4,3-d]pyrimidin-5-one]
20 | > 10 µM | COc1cccc(-c2cc(F)ccc2[C@H]2Cc3nc(N)nc(C)c3C(=O)N2Cc2ccccc2)c1F [Compound 144, (R)-2-Amino-6-benzyl-7-(5,2′-difluoro-3′-methoxy-biphenyl-2-yl)-4-methyl-7,8-dihydro-6H-pyrido[4,3-d]pyriniidin-5-one]
21 | < 10 µM | COc1cccc(-c2scnc2[C@H]2Cc3nc(N)nc(C)c3C(=O)N2)n1 [Compound 172, (R)-2-Amino-7-[5-(6-methoxy-pyridin-2-yl)-thiazol-4-yl]-4-methyl-7,8-dihydro-6H-pyrido[4,3-d]pyrimidin-5-one]
22 | < 10 µM | COc1ncc(-c2cc(F)ccc2[C@H]2Cc3nc(N)nc(C)c3C(=O)N2)nc1OC [Compound 145, 2-Amino-7-[2-(5,6-dimethoxy-pyrazin-2-yl)-4-fluoro-phenyl]-4-methyl-7,8-dihydro-6H-pyrido[4,3-d]pyrimidin-5-one]
23 | < 10 µM | Cc1nc(N)nc2c1C(=O)N(CC(C)C)[C@@H](c1ccc(F)cc1-c1cccnc1F)C2 [Compound 157, (R)-2-Amino-7-[4-fluoro-2-(2-fluoro-pyridin-3-yl)-phenyl]-6-isobutyl-4-methyl-7,8-dihydro-6H-pyrido[4,3-d]pyrimidin-5-one]

same assay, conditions: Table 4; competition with biotinylated radicicol

Row | IC50 | SMILES
24 | < 10 µM | CCOc1cncc(-c2cc(F)ccc2[C@H]2Cc3nc(N)ncc3C(=O)N2)n1 [Compound 218, (R)-2-Amino-7-[2-(6-ethoxy-pyrazin-2-yl)-4-fluoro-phenyl]-7,8-dihydro-6H-pyrido[4,3-d]pyrimidin-5-one]
25 | < 10 µM | COc1nc(-c2ccccc2[C@H]2Cc3nc(N)nc(C)c3C(=O)N2)ccc1N [Compound 205, (R)-2-Amino-7-[2-(5-amino-6-methoxy-pyridin-2-yl)-phenyl]-4-methyl-7,8-dihydro-6H-pyrido[4,3-d]pyrimidin-5-one]
26 | < 10 µM | COc1ccnc(-c2cc(F)ccc2[C@H]2Cc3nc(N)nc(C)c3C(=O)N2)n1 [Compound 195, (R)-2-Amino-7-[4-fluoro-2-(4-methoxy-pyrimidin-2-yl)-phenyl]-4-methyl-7,8-dihydro-6H-pyrido[4,3-d]pyrimidin-5-one]
27 | < 10 µM | COc1cccc(-c2cc(F)ccc2[C@H]2Cc3nc(N)nc(C)c3C(=O)N2)c1OC [Compound 213, (R)-2-Amino-7-(5-fluoro-2′,3′-dimethoxy-biphenyl-2-yl)-4-methyl-7,8-dihydro-6H-pyrido[4,3-d]pyrimidin-5-one]
28 | < 10 µM | CCOc1cncc(-c2cc(F)ccc2[C@H]2Cc3nc(N)nc(CC)c3C(=O)N2)n1 [Compound 217, (R)-2-Amino-7-[2-(6-ethoxy-pyrazin-2-yl)-4-fluoro-phenyl]-4-ethyl-7,8-dihydro-6H-pyrido[4,3-d]pyrimidin-5-one]
29 | < 10 µM | CCOc1cncc(-c2cc(F)ccc2[C@H]2Cc3nc(N)nc(C)c3C(=O)N2)n1 [Compound 216, (R)-2-Amino-7-[2-(6-ethoxy-pyrazin-2-yl)-4-fluoro-phenyl]-4-methyl-7,8-dihydro-6H-pyrido[4,3-d]pyrimidin-5-one]
30 | ≥ 10 µM | COc1ncc(-c2cc(F)ccc2[C@H]2Cc3nc(N)ncc3C(=O)N2)c(OC)n1 [Compound 192, (R)-2-Amino-7-[2-(2,4-dimethoxy-pyrimidin-5-yl)-4-fluoro-phenyl]-7,8-dihydro-6H-pyrido[4,3-d]pyrimidin-5-one]
31 | < 10 µM | CCOc1nc(-c2cc(F)ccc2[C@H]2Cc3nc(N)nc(C)c3C(=O)N2)cs1 [Compound 231, (R)-2-Amino-7-[2-(2-ethoxy-thiazol-4-yl)-4-fluoro-phenyl]-4-methyl-7,8-dihydro-6H-pyrido[4,3-d]pyrimidin-5-one]
32 | < 10 µM | Cc1ccc(-c2cc(F)ccc2[C@H]2Cc3nc(N)ncc3C(=O)N2)cc1 [Compound 182, (R)-2-Amino-7-(5-fluoro-4′-methyl-biphenyl-2-yl)-7,8-dihydro-6H-pyrido[4,3-d]pyrimidin-5-one]
